CC[C@H](C)[C@H]1O[C@]2(CC[C@@H]1C)C[C@@H]1C[C@@H](C/C=C(\C)[C@@H](O[C@H]3C[C@H](OC)[C@@H](O[C@H]4C[C@H](OC)[C@@H](O)[C@H](C)O4)[C@H](C)O3)[C@@H](C)/C=C/C=C3\CO[C@@H]4[C@H](O)C(C)=C[C@@H](C(=O)O1)[C@]34O)O2
solubility (mole fraction)
Details	293.2 K	298.2 K	303.2 K	308.2 K	313.2 K
in isopropanol	0.0675	0.0823	0.0915	0.0967	0.106
in n-propanol	0.089	0.105	0.115	0.122	0.136
in water	5.1e-06	5.6e-06	6.1e-06	6.5e-06	6.9e-06
